The values below come from patent US7981879B2, “HIV integrase inhibitors” (Instituto di Ricerchi di Biologia Molecolare P. Angeletti …, priority 2005, dated 2011).

Read-outs that look alike come from different tables or passages of the source. Bounds are passed on as bounds.

The test system of the experiment is HIV. The experiment can be described thus: Assay for inhibition of HIV replication (spread assay): acute HIV infection of T-lymphoid cells. It counts as cell-based. Conditions: read-out: CIC95, inhibition of HIV replication. The protocol:
Assays for the inhibition of acute HIV infection of T-lymphoid cells (alternatively referred to herein as the “spread assay”) were conducted in accordance with Vacca, J. P. et al., Proc. Natl. Acad. Sci. USA 1994, 91: 4096. […] The other compounds in Table 1 were tested in the spread assay up to 1 micromolar, but specific IC95 values were not obtained; i.e., the IC95 values were greater than 1 micromolar. It is believed, however, that the IC95 values of these compounds would be less than about 50 micromolar.

The mark [1] stands for this setting: Human immunodeficiency virus 1, spread assay, T-lymphoid cells.

As to `CN1Cn2c(nc(C(=O)NCc3ccc(F)cc3)c(O)c2=O)C12CCCCC2` [Compound 1, N-(4-fluorobenzyl)-3′-hydroxy-7′-methyl-4′-oxo-6′,7′-dihydro-4′H-spiro[cyclohexane-1,8′-imidazo[1,5-a]pyrimidine]-2′-carboxamide], the IC95 (Human immunodeficiency virus 1, T-lymphoid) is < 1000 nM.
With `CN1Cn2c(nc(C(=O)NCc3ccc(F)cc3S(C)(=O)=O)c(O)c2=O)C1(C)C` [Compound 2, N-[4-fluoro-2-(methylsulfonyl)benzyl]-3-hydroxy-7,8,8-trimethyl-4-oxo-4,6,7,8-tetrahydroimidazo[1,5-a]pyrimidine-2-carboxamide], under setting [1], the IC95 was < 1000 nM.
On the same count and under the same terms, the figure for `CN1Cn2c(nc(C(=O)NCc3ccc(F)cc3)c(O)c2=O)C1(C)C` [Compound 5, N-(4-fluorobenzyl)-3-hydroxy-7,8,8-trimethyl-4-oxo-4,6,7,8-tetrahydroimidazo[1,5-a]pyrimidine-2-carboxamide] is < 1000 nM; for `CC1(C)c2nc(C(=O)NCc3ccc(F)cc3)c(O)c(=O)n2CN1Cc1cccnc1` [Compound 6, N-(4-fluorobenzyl)-3-hydroxy-8,8-dimethyl-4-oxo-7-(pyridin-3-ylmethyl)-4,6,7,8-tetrahydroimidazo[1,5-a]pyrimidine-2-carboxamide] it is < 1000 nM.
Same read-out and setting: with `O=C(NCc1ccc(F)cc1)c1nc2n(c(=O)c1O)CCNC2COCc1ccccc1` (centres unmarked) [Compound 9, 9-[(benzyloxy)methyl]-N-(4-fluorobenzyl)-3-hydroxy-4-oxo-6,7,8,9-tetrahydro-4H-pyrazino[1,2-a]pyrimidine-2-carboxamide] the figure was < 1000 nM.
Turning to `CN1CCn2c(nc(C(=O)NCc3ccc(F)cc3)c(O)c2=O)C1COCc1ccccc1` (centres unmarked) [Compound 11, 9-[(benzyloxy)methyl]-N-(4-fluorobenzyl)-3-hydroxy-8-methyl-4-oxo-6,7,8,9-tetrahydro-4H-pyrazino[l,2-a]pyrimidine-2-carboxamide], the IC95 under setting [1] fell in the range of 1000 to 10000 nM.
The same measure, in the same setting: with `CC(=O)N1CCn2c(nc(C(=O)NCc3ccc(F)cc3)c(O)c2=O)C1COCc1ccccc1` (centres unmarked) [Compound 12, 8-acetyl-9-[(benzyloxy)methyl]-N-(4-fluorobenzyl)-3-hydroxy-4-oxo-6,7,8,9-tetrahydro-4H-pyrazino[1,2-a]pyrimidine-2-carboxamide] the figure was 1000 to 10000 nM; with `CSCC1NCCn2c1nc(C(=O)NCc1ccc(F)cc1)c(O)c2=O` (centres unmarked) [Compound 27, N-(4-fluorobenzyl)-3-hydroxy-9-[(methylthio)methyl]-4-oxo-6,7,8,9-tetrahydro-4H-pyrazino[1,2-a]pyramidine-2-carboxamide], < 1000 nM.
The same measure, in the same setting: the figure for `CN1CCn2c(nc(C(=O)NCc3ccc(F)cc3)c(O)c2=O)C1CS(C)(=O)=O` (centres unmarked) [Compound 28, N-(4-fluorobenzyl)-3-hydroxy-8-methyl-9-[(methylsulfonyl)methyl]-4-oxo-6,7,8,9-tetrahydro-4H-pyrazino[1,2-a]pyrimidine-2-carboxamide] is 1000 to 10000 nM.
As for `O=C(NCc1ccc(F)cc1)c1nc2n(c(=O)c1O)CCNC21CCOCC1` [Compound 29, N-(4-fluorobenzyl)-3′-hydroxy-4′-oxo-2,3,5,6,7′,8′-hexahydro-4′H,6′H-spiro[pyran-4,9′-pyrazino[1,2-a]pyrimidine]-2′-carboxamide], the IC95 under setting [1] is < 1000 nM.
For the compound `CN1CCn2c(nc(C(=O)NCc3ccc(F)cc3)c(O)c2=O)C12CCOCC2` [Compound 30, N-(4-fluorobenzyl)-3′-hydroxy-8′-methyl-4′-oxo-2,3,5,6,7′,8′-hexahydro-4′H,6′H-spiro[pyran-4,9′-pyrazino[1,2-a]pyrimidine]-2′-carboxamide], under setting [1], the IC95 was < 1000 nM.
The same measure, in the same setting: the figure for `CC1c2nc(C(=O)NCc3ccc(F)cc3)c(O)c(=O)n2CCN1C` (centres unmarked) [Compound 32, N-(4-fluorobenzyl)-3-hydroxy-8,9-dimethyl-4-oxo-6,7,8,9-tetrahydro-4H-pyrazino[1,2-a]pyrimidine-2-carboxamide] is < 1000 nM; for `CN(C)C(=O)CN1CCn2c(nc(C(=O)NCc3ccc(F)cc3)c(O)c2=O)C1(C)C` [Compound 64, 8-[2-(dimethylamino)-2-oxoethyl]-N-(4-fluorobenzyl)-3-hydroxy-9,9-dimethyl-4-oxo-6,7,8,9-tetrahydro-4H-pyrazino[1,2-a]pyrimidine-2-carboxamide] it is 1000 to 10000 nM.
In the case of `CC1(C)NS(=O)(=O)Cn2c1nc(C(=O)NCc1ccc(F)cc1)c(O)c2=O` [Compound 105, N-(4-fluorobenzyl)-3-hydroxy-9,9-dimethyl-4-oxo-8,9-dihydro-4H-pyrimido[2,1-d][1,2,5]thiadiazine-2-carboxamide 7,7-dioxide], the IC95 under setting [1] lay within 1000 to 10000 nM.
Same read-out and setting: the figure for `CN1CCn2c(nc(C(=O)NCc3ccc(F)cc3)c(O)c2=O)C(N(C)Cc2ccccc2)C1` (centres unmarked) [Compound 159, 10-[benzyl(methyl)amino]-N-(4-fluorobenzyl)-3-hydroxy-8-methyl-4-oxo-4,6,7,8,9,10-hexahydropyrimido[1,2-d][1,4]diazepine-2-carboxamide] is 1000 to 10000 nM.
Same read-out and setting: with `CN1CCn2c(nc(C(=O)NCc3ccc(F)cc3)c(O)c2=O)C(NC(=O)C(=O)N(C)C)C1` (centres unmarked) [Compound 160, N′-(2-{[(4-fluorobenzyl)amino]carbonyl}-3-hydroxy-8-methyl-4-oxo-4,6,7,8,9,10-hexahydropyrimido[1,2-d][1,4]diazepin-10-yl)-N,N-dimethylethanediamide] the figure was < 1000 nM.
Same read-out and setting: with `CC(=O)N(CC(C)C)C1CN(C)CCn2c1nc(C(=O)NCc1ccc(F)cc1)c(O)c2=O` (centres unmarked) [Compound 161, 10-[acetyl(isobutyl)amino]-N-(4-fluorobenzyl)-3-hydroxy-8-methyl-4-oxo-4,6,7,8,9,10-hexahydropyrimido[1,2-d][1,4]diazepine-2-carboxamide] the figure was < 1000 nM; with `CN1CCn2c(nc(C(=O)NCc3ccc(F)cc3)c(O)c2=O)C(N(C)S(C)(=O)=O)C1` (centres unmarked) [Compound 163, N-(4-fluorobenzyl)-3-hydroxy-8-methyl-10-[methyl(methylsulfonyl)amino]-4-oxo-4,6,7,8,9,10-hexahydropyrimido[1,2-d][1,4]diazepine-2-carboxamide], < 1000 nM; with `COC(=O)N(C)C1CN(C)CCn2c1nc(C(=O)NCc1ccc(F)cc1)c(O)c2=O` (centres unmarked) [Compound 166, methyl (2-{[(4-fluorobenzyl)amino]carbonyl}-3-hydroxy-8-methyl-4-oxo-4,6,7,8,9,10-hexahydropyrimido[1,2-d][1,4]diazepin-10-yl)methylcarbamate], < 1000 nM.
As to `CC(C)CNC1CN(C)CCn2c1nc(C(=O)NCc1ccc(F)cc1)c(O)c2=O` (centres unmarked) [Compound 169, N-(4-fluorobenzyl)-3-hydroxy-10-(isobutylamino)-8-methyl-4-oxo-4,6,7,8,9,10-hexahydropyrimido[1,2-d][1,4]diazepine-2-carboxamide], the IC95 under setting [1] fell in the range of 1000 to 10000 nM.
On the same count and under the same terms, with `CC(=O)N(C)C1CN(C)CCn2c1nc(C(=O)NCc1ccc(F)cc1)c(O)c2=O` (centres unmarked) [Compound 170, 10-[acetyl(methyl)amino]-N-(4-fluorobenzyl)-3-hydroxy-8-methyl-4-oxo-4,6,7,8,9,10-hexahydropyrimido[1,2-d][1,4]diazepine-2-carboxamide] the figure was < 1000 nM; with `CC1(C)NCCCn2c1nc(C(=O)NCc1ccc(F)cc1)c(O)c2=O` [Compound 175, N-(4-fluorobenzyl)-3-hydroxy-10,10-dimethyl-4-oxo-4,6,7,8,9,10-hexahydropyrimido[1,2-a][1,4]diazepine-2-carboxamide], < 1000 nM.
Consider `CN1CCCn2c(nc(C(=O)NCc3ccc(F)cc3)c(O)c2=O)C1(C)C` [Compound 176, N-(4-fluorobenzyl)-3-hydroxy-9,10,10-trimethyl-4-oxo-4,6,7,8,9,10-hexahydropyrimido[1,2-a][1,4]diazepine-2-carboxamide], for which the IC95 under setting [1] is < 1000 nM.
